{
  "source": "paper PMC9607599",
  "about": "“Dual Targeting Ligands—Histamine H3 Receptor Ligands with Monoamine Oxidase B Inhibitory Activity—In Vitro and In Vivo Evaluation” (Pharmaceutics, 2022)",
  "key": {"[1]": {"system": "Wistar rats", "test": "feeding behavior (food, water, urine) after sub-chronic administration in metabolic cages", "type": "in vivo, rat", "conditions": "3 mg/kg s.c. for 6 days, treatment period value (vs pre-treatment)", "experimental": "The compound 13 has been examined for its in vivo activity in rats. Male Wistar rats weighing 180–240 g at the beginning of the experiments were used for the study. Animals were individually housed in standard cages with liquid and food available ad libitum, under an artificial reversed 12-h light–dark cycle with light off at 7 a.m., temperature 21–22 °C and 60–65% humidity.\nBefore the start of the experiments, the animals were habituated for 7 days to the conditions in the animal facility. Pharmacological treatments were carried out in the dark phase of the cycle. During the drug administration, the rats were kept in metabolic cages (Tecniplast, Italy). After an additional one day adaptation, there was a 3-day pre-treatment phase.\n(§1) The compound 13 was given to intact Wistar rats to verify its impact on the metabolism of biogenic amines in the brain (cerebral amines and their metabolites concentrations as well as activities of metabolizing enzymes). […] Both drugs (3 mg/kg body mass, dissolved in 0.9% NaCl) were given subcutaneously for 6 consecutive days. Control rats were injected with 200 μL of 0.9% NaCl.\nThe volumes of consumed food and water, as well as urine excretion, were recorded daily and expressed in g or mL per 100 g of body mass or mL per 24 h, respectively.\nThe final results are given as means with SEM calculated for each 24-h period, computed from 3-day (pre-treatment phase) or 6-day (pharmacological treatment) monitoring. All experimental procedures were undertaken according to EU directives and local ethical regulations."}, "[2]": {"molecular_target": "T1, HNMT in rat cerebral cortex (Rattus norvegicus, UniProt Q01984)", "T1 construct": "from tissue; host or cells: cerebral cortex of male Wistar rats", "T1 sequence (Q01984 whole entry)": "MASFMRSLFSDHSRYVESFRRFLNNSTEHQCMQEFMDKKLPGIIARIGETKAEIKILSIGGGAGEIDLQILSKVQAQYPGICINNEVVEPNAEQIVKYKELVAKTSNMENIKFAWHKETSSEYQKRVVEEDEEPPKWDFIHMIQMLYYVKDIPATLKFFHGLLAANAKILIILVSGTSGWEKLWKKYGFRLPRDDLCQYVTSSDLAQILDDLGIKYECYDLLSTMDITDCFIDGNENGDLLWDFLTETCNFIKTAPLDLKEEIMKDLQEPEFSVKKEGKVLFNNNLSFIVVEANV", "test": "histamine N-methyltransferase activity after sub-chronic administration (radioenzymatic)", "type": "in vivo", "conditions": "3 mg/kg/day s.c. for 6 days", "experimental": "as §1\n(§2) Tissues were collected and properly prepared for subsequent biochemical analyzes. The brain was quickly removed from the skull and the selected structures (hypothalamus, striatum, cerebral cortex) were dissected according to the method by Glowinsky and Iversen, immediately frozen in liquid nitrogen and kept at −80 °C until assayed.\nHistamine N-methyltransferase activity was determined radioenzymatically according to Taylor and Snyder by measurements of radioactive N-tele-methylhistamine formed in a transmethylation reaction catalyzed by the enzyme, as previously described. S-adenosyl-L-(methyl-^14C)-methionine was used as a donor of methyl group.\nThe enzyme activities are expressed as pmol/min/mg protein. Protein concentration was analyzed by Lowry’s method."}, "[3]": {"system": "astrocyte cell line isolated from human cerebral cortex", "test": "MTT cell viability test on human astrocytes", "type": "cell-based", "conditions": "Astrocyte, human astrocytes, MTT", "experimental": "The studies were performed on a commercially-available astrocyte cell line isolated from human cerebral cortex (ScienCell Research Laboratories, San Diego, CA, USA; Cat no. 1800). The cells (passage 7–8) were seeded into a 96-well plate at an amount of 10,000 cells/well and kept in accordance with the ScienCell Research Laboratories’ protocol, i.e., in astrocyte medium supplemented with 2% fetal bovine serum, 10% astrocyte growth supplement and 1% penicillin/streptomycin solution, in an atmosphere with 5% CO2 at 37 °C. The cells were allowed to grow for 24 h and then treated with increasing concentrations of test compounds (0.01–0.25 mg/mL) for 24 and 72 h. Astrocytes in the medium on each plate (regardless of the factors tested) were used as a positive control.\nThe viability of the astrocyte cell line was determined calorimetrically using 3-(4,5-dimethylthazol-2-yl)-2,5-diphenyltetrazolium bromide (MTT; Sigma-Aldrich Chemical Co. Ltd., Saint Louis, MO, USA) as described earlier. […] After the incubation time (24 or 72 h) with examined drugs, 50 μL MTT solution (1 mg/mL) was added to each well of the plate for another 4 h. The method is based on the reduction of a yellow tetrazolium salt (MTT) into purple formazan crystals by mitochondrial succinate-tetrazolium reductase system which is metabolically active in viable cells. At the end of the experiment, the cells were treated with 100 μL dimethyl sulphoxide, which enabled the release of the reaction product.\nThe absorbance was measured at 570 nm using a BioTek EL×800 microplate reader (BioTek, Winooski, Vermont, USA) and results were expressed as a percentage of the absorbance measured in control cells. The obtained values were plotted against different concentrations of each compound to calculate the viability inhibition concentration at 50% (IC50) using GraphPad Prism 6.07 (GraphPad Software, Inc., San Diego, CA, USA). The experiment was repeated in quadruplicate.\nFor the cytotoxicity assessment in the MTT assays, each test drug was used at 8 concentrations (range: 0.01–0.25 mg/mL)."}, "[4]": {"system": "rat brain (cerebral cortex, hypothalamus, striatum) monoamines", "test": "HPLC-ED detection of monoamines and metabolites in rat brain tissue after sub-chronic administration", "type": "in vivo", "conditions": "for 5-HIAA/5-HT ratio / DOPAC/DA ratio / HVA/DA ratio / MHPG/NA ratio: mean ± SEM", "experimental": "as §1, §2\nThe concentration of dopamine (DA), serotonin (5-HT) and noradrenaline (NA) as well as their metabolites, i.e., 3,4-dihydroxyphenylacetic acid (DOPAC), homovanillic acid (HVA), 3-methoxy-4-hydroxyphenylglycol (MHPG) and 5-hydroxyindoleacetic acid (5-HIAA) was determined in striatum (STR), hypothalamus (HPT) and cerebral cortex (CTX) with the RP-HPLC-ED method.\nCerebral samples for HPLC analysis were homogenized using an ultrasonic homogenizer (Fisher BioBlock Scientific, France) for 15 s in 150 μL homogenization solution (0.1 M HClO4 containing 0.4 mM Na2S2O5), and centrifuged at 12,000 rpm for 15 min at 4 °C. At least 100 μL of the supernatant was transferred to chromatographic tubes and kept at –80 °C until analysis. Next, 20 μL of the filtrates was injected into the HPLC system.\nThe Agilent 1100 chromatographic system with Waters Spherisorb ODS-1 RP C-18 chromatographic column (4.6 × 250 mm) preceded by a Zorbax SB-C18 pre-column (4.6 × 12.5 mm) was used. Column temperature was set at 35 °C and mobile phase flow at 1 mL/min. The glassy carbon working electrode was set at +0.65 V, relative to the Ag/AgCl reference electrode. The mobile phase consisted of a phosphate buffer (3.4 pH) containing: 0.15 M NaH2PO4 x H2O, […] Na2EDTA, 0.5 mM Na2OSA, 0.5 mM LiCl and addition of methanol (10%). The chromatographic data were analyzed using ChemStation, Revision-B.03.02, Agilent software.\nThe concentrations of monoamines and their metabolites in each sample were calculated from the integrated chromatographic peak area and presented in nmol/gram of wet tissue. Additionally, the ratio of metabolites to their parent amines was calculated."}, "[5]": {"conditions": "24 h incubation, read-out: IC50 24 h"}, "[6]": {"conditions": "72 h incubation, read-out: IC50 72 h"}, "[7]": {"conditions": "cerebral cortex, 3 mg/kg s.c. for 6 days"}, "[8]": {"conditions": "not statistically significant, vs control"}, "[9]": {"conditions": "striatum, 3 mg/kg s.c. for 6 days"}},
  "note": "Several values for one entry are separate records, joined by “and”; a condition that tells them apart may be missing. Equal entries are not always repeated. Where two headings read alike, the source gives them in different places.",
  "data": [
    {"smiles": "Clc1ccc(CCCOCCCN2CCCCC2)cc1", "note": "[Pitolisant, 3-(4-chlorophenyl)propyl 3-piperidinopropyl ether, reference compound]", "values": [
      {"measurement": "food consumption", "setting": "[1]", "value": "8.95 ± 0.14", "unit": "g/100 g bw"},
      {"measurement": "urine output", "setting": "[1]", "value": "9.08 ± 0.49", "unit": "mL/24 h"},
      {"measurement": "water consumption", "setting": "[1]", "value": "14.16 ± 0.43", "unit": "mL/100 g bw/24 h"},
      {"measurement": "HNMT activity", "setting": "[2]", "value": "42.51 ± 1.40 pmol/min/mg of protein"},
      {"measurement": "IC50", "setting": "[3]; [5]", "value": "346 µM and 115 µg/mL"},
      {"measurement": "IC50", "setting": "[3]; [6]", "value": "241 µM and 80 µg/mL"},
      {"measurement": "content in brain tissue of the examined biogenic amines and their metabolites compared to control, in words", "setting": "[4]; 3 mg/kg s.c. for 6 days", "value": "did not show any differences"}
    ]},
    {"smiles": "CC1CCCN1CCCOc1ccc(C(C)(C)C)cc1.O=C(O)C(=O)O", "note": "(centres unmarked) [Compound 13, 1-(3-(4-(tert-Butyl)phenoxy)propyl)-2-methylpyrrolidine hydrogen oxalate]", "values": [
      {"measurement": "food consumption", "setting": "[1]", "value": "8.61 ± 0.11", "unit": "g/100 g bw"},
      {"measurement": "urine output", "setting": "[1]", "value": "8.90 ± 0.045", "unit": "mL/24 h"},
      {"measurement": "water consumption", "setting": "[1]", "value": "13.37 ± 0.31", "unit": "mL/100 g bw/24 h"},
      {"measurement": "HNMT activity", "setting": "[2]", "value": "40.09 ± 1.77 pmol/min/mg of protein"},
      {"measurement": "IC50", "setting": "[3]; [5]", "value": "230 µM and 84 µg/mL"},
      {"measurement": "IC50", "setting": "[3]; [6]", "value": "142 µM and 52 µg/mL"},
      {"measurement": "5-HIAA/5-HT ratio", "setting": "[4]; CTX, 3 mg/kg s.c. for 6 days", "value": "1.211 ± 0.202"},
      {"measurement": "DOPAC/DA ratio", "setting": "[4]; CTX, 3 mg/kg s.c. for 6 days", "value": "0.364 ±0.080 **^,##"},
      {"measurement": "HVA/DA ratio", "setting": "[4]; CTX, 3 mg/kg s.c. for 6 days", "value": "0.254 ± 0.015 *^,##"},
      {"measurement": "5-HIAA/5-HT ratio", "setting": "[4]; HPT, 3 mg/kg s.c. for 6 days", "value": "0.810 ±0.061"},
      {"measurement": "DOPAC/DA ratio", "setting": "[4]; HPT, 3 mg/kg s.c. for 6 days", "value": "0.359 ±0.117"},
      {"measurement": "HVA/DA ratio", "setting": "[4]; HPT, 3 mg/kg s.c. for 6 days", "value": "0.329 ± 0.091"},
      {"measurement": "MHPG/NA ratio", "setting": "[4]; HPT, 3 mg/kg s.c. for 6 days", "value": "0.205 ±0.030"},
      {"measurement": "5-HIAA/5-HT ratio", "setting": "[4]; STR, 3 mg/kg s.c. for 6 days", "value": "2.456 ± 0.908"},
      {"measurement": "DOPAC/DA ratio", "setting": "[4]; STR, 3 mg/kg s.c. for 6 days", "value": "0.207 ± 0.067"},
      {"measurement": "HVA/DA ratio", "setting": "[4]; STR, 3 mg/kg s.c. for 6 days", "value": "0.486 ± 0.388"},
      {"measurement": "MHPG/NA ratio", "setting": "[4]; STR, 3 mg/kg s.c. for 6 days", "value": "0.329 ± 0.057"},
      {"measurement": "5-HIAA level in CTX", "setting": "[4]; [7]", "value": "1.320 ± 0.153", "unit": "nmol/g wet tissue"},
      {"measurement": "5-HT level in CTX", "setting": "[4]; [7]", "value": "1.194 ± 0.139", "unit": "nmol/g wet tissue"},
      {"measurement": "DA content in CTX", "setting": "[4]; [7]", "value": "1.777 ± 0.128", "unit": "nmol/g wet tissue"},
      {"measurement": "DOPAC level in CTX", "setting": "[4]; [7]", "value": "0.562 ± 0.093", "unit": "nmol/g wet tissue"},
      {"measurement": "MHPG concentration in CTX", "setting": "[4]; [7]", "value": "0.897 ± 0.280", "unit": "nmol/g wet tissue"},
      {"measurement": "NA concentration in CTX", "setting": "[4]; [7]", "value": "1.255 ± 0.152", "unit": "nmol/g wet tissue"},
      {"measurement": "DA concentration in hypothalamus, in words", "setting": "[4]; [8]", "value": "slight increase"},
      {"measurement": "DOPAC concentration in hypothalamus, in words", "setting": "[4]; [8]", "value": "decrease"},
      {"measurement": "DA content in STR", "setting": "[4]; [9]", "value": "9.914 ± 1.718", "unit": "nmol/g wet tissue"},
      {"measurement": "DOPAC level in STR", "setting": "[4]; [9]", "value": "1.704 ± 0.187", "unit": "nmol/g wet tissue"},
      {"measurement": "5-HIAA level in hypothalamus, in words", "setting": "[4]; vs control", "value": "statistically significant decrease"},
      {"measurement": "5-HT and 5-HIAA concentrations in the striatum, in words", "setting": "[4]; vs control", "value": "did not affect"},
      {"measurement": "5-HT content in hypothalamus, in words", "setting": "[4]; vs control", "value": "no changes"},
      {"measurement": "NA and MHPG concentration in the other examined brain structures (HPT, STR), in words", "setting": "[4]; vs control", "value": "no differences were found"}
    ]}
  ]
}
